Source: patent publication US12077503B2, “Substituted cyclic amides and their use as herbicides” (FMC CORPORATION, priority 2015, dated 2024)
Read-outs that look alike come from different tables or passages of the source.

Legend:
Assay type in all cases: in vivo
corn (Zea mays) = assay: Test A postemergence; settings: Zea mays, post-emergence, 240 h, postemergence; for plant injury at 125 g/ha: 125 g ai/ha; for plant injury at 500 g/ha: 500 g ai/ha, 0 to 100 scale, 0 is no effect, 100 is complete control
Outline: (§1)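 Seeds sprayed preemergence with a directed soil spray, or plants at 2 to 10 cm height and one- to two-leaf stage sprayed postemergence, with test chemicals in a non-phytotoxic solvent mixture containing surfactant, in loam soil–sand blend. Injury rated visually against untreated controls after about 10 d in greenhouse, 0 (no effect) to 100 (complete control).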

[1] = system: ryegrass, Italian (Italian ryegrass, Lolium multiflorum); assay: Test A postemergence; settings: Lolium multiflorum, post-emergence, 240 h, postemergence; for pest or weed control at 125 g/ha: 125 g ai/ha; for pest or weed control at 500 g/ha: 500 g ai/ha, 0 to 100 scale, 0 is no effect, 100 is complete control
Outline: as §1

[2] = system: ragweed (common ragweed, Ambrosia elatior); assay: Test A postemergence; settings: Ambrosia artemisiifolia, post-emergence, 240 h, postemergence; for pest or weed control at 125 g/ha: 125 g ai/ha; for pest or weed control at 500 g/ha: 500 g ai/ha, 0 to 100 scale, 0 is no effect, 100 is complete control
Outline: as §1

[3] = system: blackgrass (Alopecurus myosuroides); assay: Test A postemergence; settings: Alopecurus myosuroides, post-emergence, 240 h, postemergence; for pest or weed control at 125 g/ha: 125 g ai/ha; for pest or weed control at 500 g/ha: 500 g ai/ha, 0 to 100 scale, 0 is no effect, 100 is complete control
Outline: as §1

[4] = system: pigweed (Amaranthus retroflexus); assay: Test A postemergence; settings: Amaranthus retroflexus, post-emergence, 240 h, postemergence; for pest or weed control at 125 g/ha: 125 g ai/ha; for pest or weed control at 500 g/ha: 500 g ai/ha, 0 to 100 scale, 0 is no effect, 100 is complete control
Outline: as §1

Kochia (Kochia scoparia) = assay: Test A preemergence; settings: Bassia scoparia, pre-emergence, 240 h, preemergence, 0 to 100 scale where 0 is no effect and 100 is complete control, read-out: Kochia plant response rating; for pest or weed control at 125 g/ha: 125 g ai/ha; for pest or weed control at 500 g/ha: 500 g ai/ha
Outline: as §1

[5] = system: giant foxtail (Setaria faberii); assay: Test A preemergence; settings: Setaria faberi, pre-emergence, 240 h, preemergence, 0 to 100 scale where 0 is no effect and 100 is complete control, read-out: Foxtail, Giant plant response rating; for pest or weed control at 125 g/ha: 125 g ai/ha; for pest or weed control at 500 g/ha: 500 g ai/ha
Outline: as §1

[6] = system: ryegrass, Italian (Italian ryegrass, Lolium multiflorum); assay: Test A preemergence; settings: Lolium multiflorum, pre-emergence, 240 h, preemergence, 0 to 100 scale where 0 is no effect and 100 is complete control, read-out: Ryegrass, Italian plant response rating; for pest or weed control at 125 g/ha: 125 g ai/ha; for pest or weed control at 500 g/ha: 500 g ai/ha
Outline: as §1

[7] = system: barnyardgrass (Echinochloa crus-galli); assay: Test A preemergence; settings: Echinochloa crus-galli, pre-emergence, 240 h, preemergence, read-out: Barnyardgrass plant response rating; for pest or weed control at 125 g/ha: 125 g ai/ha; for pest or weed control at 500 g/ha: 500 g ai/ha
Outline: as §1

[8] = system: ragweed (common ragweed, Ambrosia elatior); assay: Test A preemergence; settings: Ambrosia artemisiifolia, pre-emergence, 240 h, preemergence, 0 to 100 scale where 0 is no effect and 100 is complete control, read-out: Ragweed plant response rating; for pest or weed control at 125 g/ha: 125 g ai/ha; for pest or weed control at 500 g/ha: 500 g ai/ha
Outline: as §1

[9] = system: pigweed (Amaranthus retroflexus); assay: Test A preemergence; settings: Amaranthus retroflexus, pre-emergence, 240 h, preemergence, 0 to 100 scale where 0 is no effect and 100 is complete control, read-out: Pigweed plant response rating; for pest or weed control at 125 g/ha: 125 g ai/ha; for pest or weed control at 500 g/ha: 500 g ai/ha
[10] = system: ducksalad (Heteranthera limosa); assay: Test B flooded paddy test; settings: Heteranthera limosa, 250 g ai/ha, Flood; 0 to 100 scale where 0 is no effect and 100 is complete control; read-out: Ducksalad plant response rating
Outline: (§2)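 Plants at 2-leaf stage flooded to 3 cm above soil, with compounds applied directly to paddy water and that depth maintained. Plants kept in greenhouse 13–15 d. Visual rating versus controls on a 0 (no effect) to 100 (complete control) scale.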

[11] = system: barnyardgrass (Echinochloa crus-galli); assay: Test B flooded paddy test; settings: Echinochloa crus-galli, 250 g ai/ha, Flood; 0 to 100 scale where 0 is no effect and 100 is complete control; read-out: Barnyardgrass plant response rating
Outline: as §2

rice (Oryra sativa) = assay: Test B flooded paddy test; settings: Oryza sativa, 250 g ai/ha, Flood; 0 to 100 scale where 0 is no effect and 100 is complete control; read-out: Rice plant response rating
Outline: as §2

[12] = system: sedge, umbrella (small-flower umbrella sedge, Cyperus difformis); assay: Test B flooded paddy test; settings: Cyperus difformis, 250 g ai/ha, Flood; 0 to 100 scale where 0 is no effect and 100 is complete control; read-out: Sedge, Umbrella plant response rating
Outline: as §2

[13] = visual injury vs untreated controls after approx. 10 d, 0 = no effect, 100 = complete control, read-out: Corn plant response rating (0 to 100 scale)
[14] = read-out: Corn plant response rating
[15] = visual injury vs untreated controls after approx. 10 d, 0 = no effect, 100 = complete control, read-out: Ryegrass, Italian plant response rating (0 to 100 scale)
[16] = read-out: Ryegrass, Italian plant response rating
[17] = visual injury vs untreated controls after approx. 10 d, 0 = no effect, 100 = complete control, read-out: Ragweed plant response rating (0 to 100 scale)
[18] = read-out: Ragweed plant response rating
[19] = visual injury vs untreated controls after approx. 10 d, 0 = no effect, 100 = complete control, read-out: Blackgrass plant response rating (0 to 100 scale)
[20] = read-out: Blackgrass plant response rating
[21] = visual injury vs untreated controls after approx. 10 d, 0 = no effect, 100 = complete control, read-out: Pigweed plant response rating (0 to 100 scale)
[22] = read-out: Pigweed plant response rating
[23] = 0 to 100 scale where 0 is no effect and 100 is complete control, approx. 10 d
[24] = 0 to 100 scale where 0 is no effect and 100 is complete control
[25] = visual injury rating, approximately 10 d

Row | SMILES | plant injury at 125 g/ha (corn (Zea mays); [13]) [%] | plant injury at 500 g/ha (corn (Zea mays); [14]) [%] | pest or weed control at 125 g/ha [1, 15] [%] | pest or weed control at 500 g/ha [1, 16] [%] | pest or weed control at 125 g/ha [2, 17] [%] | pest or weed control at 500 g/ha [2, 18] [%] | pest or weed control at 125 g/ha [3, 19] [%] | pest or weed control at 500 g/ha [3, 20] [%] | pest or weed control at 125 g/ha [4, 21] [%] | pest or weed control at 500 g/ha [4, 22] [%] | pest or weed control at 125 g/ha (Kochia (Kochia scoparia); approx. 10 d) [%] | pest or weed control at 500 g/ha (Kochia (Kochia scoparia)) [%] | pest or weed control at 500 g/ha [5] [%] | pest or weed control at 500 g/ha [6] [%] | pest or weed control at 500 g/ha [8] [%] | pest or weed control at 500 g/ha [9] [%] | pest or weed control at 250 g/ha [10] [%] | pest or weed control at 250 g/ha [11] [%] | pest or weed control at 250 g/ha (rice (Oryra sativa)) [%] | pest or weed control at 250 g/ha [12] [%] | further results
1 | CN1CC[C@H](c2cccc(C(F)(F)F)c2)[C@@H](C(=O)Nc2cccc(F)c2Cl)C1=O [Compound 1158] | 20 | 60 | 30 | 50 | 0 | 0 | 20 | 40 | 0 | 0 | 30 | 30 | 100 | 70 | 0 | 0 | 80 | 60 | 0 | 0 | pest or weed control at 125 g/ha ([5]; approx. 10 d): 100%; pest or weed control at 125 g/ha ([6]; approx. 10 d): 60%; pest or weed control at 125 g/ha [7, 23]: 90%; pest or weed control at 500 g/ha [7, 24]: 100%; pest or weed control at 125 g/ha ([8]; approx. 10 d): 0%; pest or weed control at 125 g/ha ([9]; approx. 10 d): 0%
2 | COc1ccc([C@H]2CN(C)C(=O)[C@@H]2C(=O)Nc2cccc(F)c2F)c(OC)c1 [Compound 1209] | 0 | 0 | 0 | 20 | 0 | 0 | 0 | 30 | 0 | 0 |  | 90 | 100 | 50 | 90 | 0 | 50 | 0 | 0 | 0 | pest or weed control at 125 g/ha (Kochia (Kochia scoparia); [25]): 60%; pest or weed control at 125 g/ha [5, 25]: 90%; pest or weed control at 125 g/ha [6, 25]: 0%; pest or weed control at 125 g/ha ([7]; visual injury rating, 0 to 100 scale where 0 is no effect and 100 is complete control, approximately 10 d): 90%; pest or weed control at 500 g/ha [7, 24]: 90%; pest or weed control at 125 g/ha [8, 25]: 60%; pest or weed control at 125 g/ha [9, 25]: 0%
3 | CN1C[C@H](c2cc(C(F)F)cs2)[C@@H](C(=O)Nc2cccc(F)c2F)C1=O [Compound 1121] |  | 90 |  | 70 |  | 40 |  | 60 |  | 40 | 80 | 100 | 100 | 60 | 100 | 50 | 100 | 70 | 10 | 0 | plant injury at 125 g/ha (corn (Zea mays); visual injury on 0 to 100 scale (0 no effect, 100 complete control), approx. 10 d, read-out: Corn plant response rating): 50%; pest or weed control at 125 g/ha ([1]; visual injury on 0 to 100 scale (0 no effect, 100 complete control), approx. 10 d, read-out: Ryegrass, Italian plant response rating): 40%; pest or weed control at 125 g/ha ([2]; visual injury on 0 to 100 scale (0 no effect, 100 complete control), approx. 10 d, read-out: Ragweed plant response rating): 20%; pest or weed control at 125 g/ha ([3]; visual injury on 0 to 100 scale (0 no effect, 100 complete control), approx. 10 d, read-out: Blackgrass plant response rating): 40%; pest or weed control at 125 g/ha ([4]; visual injury on 0 to 100 scale (0 no effect, 100 complete control), approx. 10 d, read-out: Pigweed plant response rating): 20%; pest or weed control at 125 g/ha ([5]; approx. 10 d): 90%; pest or weed control at 125 g/ha ([6]; approx. 10 d): 50%; pest or weed control at 125 g/ha [7, 23]: 90%; pest or weed control at 500 g/ha ([7]; visual injury rating about 10 d after treatment, 0 to 100 scale (0 no effect, 100 complete control)): 100%; pest or weed control at 125 g/ha ([8]; approx. 10 d): 50%; pest or weed control at 125 g/ha ([9]; approx. 10 d): 0%
